Measurements taken from article PMC12892976, “Alkylation-based optimization of antifungal FPPS inhibitors yields a potent, broad-spectrum lipophilic zoledronate derivative” (mBio, 2025).
In brackets after ≈: the same amount, converted by molar mass. Read-outs that look alike come from different tables or passages of the source.

Legend:
[1] = tested on: HEK-293T cells; assay: MTT reduction cytotoxicity assay; type: cell-based; conditions: Homo sapiens, HEK-293T, 72 h, MTT, 72 h
[2] = tested on: Aspergillus flavus; assay: MIC/MFC broth microdilution (CLSI); conditions: ATCC204304
Description: (§1) Antifungal susceptibility was determined by broth microdilution according to the CLSI guidelines described in M27-Ed4 ([16]). […] MFC was determined by back-plating drug-treated cultures from MIC broths onto SDA plates. The MFC was defined as the lowest concentration from which no colonies could be cultured.

[3] = tested on: eight fungal species; assay: MIC/MFC summary across the eight fungal species of Table 1; type: cell-based
Description: The antifungal activity of these compounds was evaluated according to CLSI guidelines ([16]).

[4] = tested on: Cryptococcus neoformans; assay: MIC/MFC broth microdilution (CLSI); conditions: Cryptococcus neoformans;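 also: susceptibility testing followed the CLSI M27-Ed4 broth microdilution document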
Description: as §1

[5] = tested on: Candida albicans; assay: checkerboard drug interaction (FICI, MICc);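 as to all read-outs here: antifungal plus FPPS inhibitor combinations on Candida albicans tested by a simplified diagonal checkerboard screen, with FICI calculated under the Loewe additivity model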; type: cell-based; conditions: C. albicans; for INH FD (MIC-MICc fold decrease): fold decrease of inhibitor MIC
Description: (§2) Drug interactions between antifungals and FPPS inhibitors were investigated using a simplified checkerboard diagonal screening method ([45]). […] FICIs were determined according to the Loewe additivity model ([17]).

[6] = tested on: Saccharomyces cerevisiae; assay: MIC/MFC broth microdilution (CLSI); type: cell-based; conditions: Saccharomyces cerevisiae S288c
Description: as §1

[7] = tested on: Trichophyton rubrum; assay: checkerboard drug interaction (FICI, MICc);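 also: simplified diagonal checkerboard screen pairing azole antifungals with FPPS inhibitors, FICI calculated under the Loewe additivity model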; type: cell-based; conditions: T. rubrum
Description: as §2

[8] = tested on: Cryptococcus neoformans; assay: checkerboard drug interaction (FICI, MICc);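 as to all read-outs here: antifungal plus FPPS inhibitor pairs tested against Cryptococcus neoformans by simplified diagonal checkerboard screening, FICI computed under the Loewe additivity model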; type: cell-based; conditions: C. neoformans; for INH FD (MIC-MICc fold decrease): fold decrease of inhibitor MIC
Description: as §2

[9] = tested on: Cryptococcus deuterogattii; assay: MIC/MFC broth microdilution (CLSI); conditions: Cryptococcus deuterogattii;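 also: broth microdilution per CLSI M27-Ed4. MFC is the lowest concentration yielding no colonies when MIC broths are subcultured onto SDA plates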
Description: as §1

[10] = tested on: Trichophyton rubrum; assay: MIC/MFC broth microdilution (CLSI); conditions: Trichophyton rubrum
Description: as §1

[11] = tested on: Aspergillus fumigatus; assay: checkerboard drug interaction (FICI, MICc);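 as to all read-outs here: simplified diagonal checkerboard screen pairing antifungals with FPPS inhibitors against Aspergillus fumigatus, with FICI calculated under the Loewe additivity model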; type: cell-based; conditions: A. fumigatus; for INH FD (MIC-MICc fold decrease): fold decrease of inhibitor MIC
Description: as §2

[12] = tested on: Saccharomyces cerevisiae; assay: checkerboard drug interaction (FICI, MICc);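 as to all read-outs here: simplified diagonal checkerboard screen pairing antifungals with FPPS inhibitors, FICI calculated under the Loewe additivity model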; type: cell-based; set-up: INH MICc / INH MICc (ITR:INH) / INH MICc (KET:INH) / INH MICc (FLC:INH): unit not given beside the values; conditions: S. cerevisiae; for INH FD (MIC-MICc fold decrease): fold decrease of inhibitor MIC
[13] = tested on: Cryptococcus deuterogattii; assay: checkerboard drug interaction (FICI, MICc);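 as to all read-outs here: simplified diagonal checkerboard screen pairing antifungal drugs with FPPS inhibitors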; type: cell-based; conditions: C. deuterogattii; for INH FD (MIC-MICc fold decrease): fold decrease of inhibitor MIC
Description: as §2

[14] = tested on: eight fungal species; assay: checkerboard interaction with azoles, summary across the eight species; type: cell-based; conditions: geometric mean MIC in combination with azoles
Description: Synergy between lipophilic FPPS inhibitors and azole antifungals was investigated by determining the fractional inhibitory concentration index (FICI) (Fig. 2; Table S1 Fig. S1) ([17]). […]. Derivatives PLA9 and 11, and PDA9, 11, and 12 antagonized azoles in C. albicans, C. neoformans, and C. deuterogattii, yet were largely synergistic in C. glabrata and S. cerevisiae. […].

[15] = tested on: Candida albicans; assay: MIC/MFC broth microdilution (CLSI); type: cell-based; conditions: Candida albicans SC5314
Description: as §1

[16] = tested on: Aspergillus flavus; assay: checkerboard drug interaction (FICI, MICc);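 also: simplified diagonal checkerboard screen pairing azole antifungals with FPPS inhibitors, FICI calculated under the Loewe additivity model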; type: cell-based; set-up: INH MICc (KET:INH) / INH MICc (FLC:INH): unit not given beside the values; conditions: A. flavus
[17] = tested on: Candida glabrata; assay: MIC/MFC broth microdilution (CLSI); conditions: Nakaseomyces glabratus, CBS138;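 also: broth microdilution following CLSI M27-Ed4, MFC taken as the lowest drug level yielding no growth once MIC wells were subcultured on SDA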
Description: as §1

[18] = tested on: Aspergillus fumigatus; assay: MIC/MFC broth microdilution (CLSI); conditions: ATCC204305
Description: as §1

[19] = tested on: Candida glabrata; assay: checkerboard drug interaction (FICI, MICc);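 as to all read-outs here: simplified diagonal checkerboard screen pairing antifungals with FPPS inhibitors, FICI calculated under the Loewe additivity model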; type: cell-based; conditions: C. glabrata; for INH FD (MIC-MICc fold decrease): fold decrease of inhibitor MIC
Description: as §2

[20] = FLC:INH combination, MIC of the inhibitor in combination with FLC
[21] = FLC:INH combination, fold decrease of FLC MIC
[22] = ITR:INH combination, MIC of the inhibitor in combination with ITR
[23] = ITR:INH combination, fold decrease of ITR MIC
[24] = KET:INH combination, MIC of the inhibitor in combination with KET
[25] = KET:INH combination, fold decrease of KET MIC
[26] = Fractional Inhibitory Concentration Index, fluconazole + inhibitor
[27] = Fractional Inhibitory Concentration Index, itraconazole + inhibitor
[28] = Fractional Inhibitory Concentration Index, ketoconazole + inhibitor
[29] = MIC of the inhibitor in combination with fluconazole
[30] = MIC of the inhibitor in combination with itraconazole
[31] = MIC of the inhibitor in combination with ketoconazole
[32] = MIC-MICc fold decrease of fluconazole, negative = increase
[33] = MIC-MICc fold decrease of itraconazole, negative = increase
[34] = MIC-MICc fold decrease of ketoconazole, negative = increase
[35] = MIC-MICc fold decrease of the inhibitor, with fluconazole
[36] = MIC-MICc fold decrease of the inhibitor, with itraconazole
[37] = MIC-MICc fold decrease of the inhibitor, with ketoconazole
[38] = FLC:INH combination, MIC of FLC in combination with the inhibitor
[39] = ITR:INH combination, MIC of ITR in combination with the inhibitor
[40] = KET:INH combination, MIC of KET in combination with the inhibitor

SMILES: CCCCCCCCCCN1CCC[C@H]1C(=O)N[C@@H](CC(=O)OC)C(=O)OC [dmPLA10]
- IC50 ([1]; HEK-293T cells, read-out: IC50): 1.57 mg/L (≈ 3.95 µM)
- IC50 ([1]; read-out: HEK IC50): 1.57 mg/L (≈ 3.95 µM)
- MFC [2]: 64 mg/L (≈ 161 µM)
- MIC [2]: 64 mg/L (≈ 161 µM)
- Geometric mean MFC ([3]; across eight species): 64.0 mg/L
- MFC ([3]; across eight species, read-out: Geometric mean MFC): 64 mg/L (≈ 161 µM)
- MIC ([3]; geometric mean across eight species, read-out: GM fungal MIC): 20.7 mg/L (≈ 51.9 µM)
- MIC ([3]; read-out: Geometric mean MIC): 20.7 mg/L (≈ 51.9 µM)
- MFC [4]: 64 mg/L (≈ 161 µM)
- MIC [4]: 16 mg/L (≈ 40.1 µM)
- FICI ([5]; FLC:INH combination): 1.5
- INH MICc [5, 20]: 8
- FLC FD (MIC-MICc fold decrease) [5, 21]: 1
- INH FD (MIC-MICc fold decrease) ([5]; FLC:INH combination): 2
- FICI ([5]; ITR:INH combination): 0.75
- INH MICc [5, 22]: 4
- ITR FD (MIC-MICc fold decrease) [5, 23]: 2
- INH FD (MIC-MICc fold decrease) ([5]; ITR:INH combination): 4
- FICI ([5]; KET:INH combination): 0.75
- INH MICc [5, 24]: 4
- KET FD (MIC-MICc fold decrease) [5, 25]: 2
- INH FD (MIC-MICc fold decrease) ([5]; KET:INH combination): 4
- MFC [6]: 16 mg/L (≈ 40.1 µM)
- MIC [6]: 8 mg/L (≈ 20.1 µM)
- FICI (FLC:INH) [7, 26]: ≥4
- FICI (ITR:INH) [7, 27]: 1.03
- FICI (KET:INH) [7, 28]: 1.06
- INH MICc (FLC:INH) [7, 29]: 64
- INH MICc (ITR:INH) [7, 30]: 8
- INH MICc (KET:INH) [7, 31]: 8
- FLC FD (FLC:INH) [7, 32]: 2
- ITR FD (ITR:INH) [7, 33]: 32
- KET FD (KET:INH) [7, 34]: 16
- INH FD (FLC:INH) [7, 35]: < -4
- INH FD (ITR:INH) [7, 36]: 1
- INH FD (KET:INH) [7, 37]: 1
- FICI ([8]; FLC:INH combination): 0.75
- INH MICc [8, 20]: 8
- FLC FD (MIC-MICc fold decrease) [8, 21]: 4
- INH FD (MIC-MICc fold decrease) ([8]; FLC:INH combination): 2
- FICI ([8]; ITR:INH combination): 0.75
- INH MICc [8, 22]: 8
- ITR FD (MIC-MICc fold decrease) [8, 23]: 4
- INH FD (MIC-MICc fold decrease) ([8]; ITR:INH combination): 2
- FICI ([8]; KET:INH combination): 0.75
- INH MICc [8, 24]: 8
- KET FD (MIC-MICc fold decrease) [8, 25]: 4
- INH FD (MIC-MICc fold decrease) ([8]; KET:INH combination): 2
- MFC [9]: 128 mg/L (≈ 321 µM)
- MIC [9]: 16 mg/L (≈ 40.1 µM)
- MFC [10]: > 128 mg/L
- MIC [10]: 8 mg/L (≈ 20.1 µM)
- FICI ([11]; FLC:INH combination): 1.06
- FLC MICc [11, 38]: 8
- INH MICc [11, 20]: 16
- FLC FD (MIC-MICc fold decrease) [11, 21]: 16
- INH FD (MIC-MICc fold decrease) ([11]; FLC:INH combination): 1
- FICI ([11]; ITR:INH combination): 0.63
- ITR MICc [11, 39]: 0.063
- INH MICc [11, 22]: 2
- ITR FD (MIC-MICc fold decrease) [11, 23]: 2
- INH FD (MIC-MICc fold decrease) ([11]; ITR:INH combination): 8
- FICI ([11]; KET:INH combination): 2.25
- KET MICc [11, 40]: 1
- INH MICc [11, 24]: 32
- KET FD (MIC-MICc fold decrease) [11, 25]: 4
- INH FD (MIC-MICc fold decrease) ([11]; KET:INH combination): -2
- FICI ([12]; FLC:INH combination): ≥4
- FLC MICc [12, 38]: 8
- INH MICc [12, 20]: 16
- FLC FD (MIC-MICc fold decrease) [12, 21]: -2
- INH FD (MIC-MICc fold decrease) ([12]; FLC:INH combination): -2
- FICI ([12]; ITR:INH combination): 1.13
- ITR MICc [12, 39]: 0.25
- INH MICc [12, 22]: 1
- ITR FD (MIC-MICc fold decrease) [12, 23]: 1
- INH FD (MIC-MICc fold decrease) ([12]; ITR:INH combination): 8
- FICI ([12]; KET:INH combination): 1.13
- KET MICc [12, 40]: 2
- INH MICc [12, 24]: 1
- KET FD (MIC-MICc fold decrease) [12, 25]: 1
- INH FD (MIC-MICc fold decrease) ([12]; KET:INH combination): 8
- FICI ([13]; FLC:INH combination): 0.38
- INH MICc [13, 20]: 8
- FLC FD (MIC-MICc fold decrease) [13, 21]: 8
- INH FD (MIC-MICc fold decrease) ([13]; FLC:INH combination): 4
- FICI ([13]; ITR:INH combination): 0.5
- INH MICc [13, 22]: 8
- ITR FD (MIC-MICc fold decrease) [13, 23]: 4
- INH FD (MIC-MICc fold decrease) ([13]; ITR:INH combination): 4
- FICI ([13]; KET:INH combination): 0.28
- INH MICc [13, 24]: 8
- KET FD (MIC-MICc fold decrease) [13, 25]: 32
- INH FD (MIC-MICc fold decrease) ([13]; KET:INH combination): 4
- GM fungal MICc [14]: 8
- MFC [15]: 32 mg/L (≈ 80.3 µM)
- MIC [15]: 32 mg/L (≈ 80.3 µM)
- FICI (FLC:INH) [16, 26]: 2
- FICI (ITR:INH) [16, 27]: 1.03
- FICI (KET:INH) [16, 28]: 1.5
- INH MICc (FLC:INH) [16, 29]: 64
- INH MICc (ITR:INH) [16, 30]: 2
- INH MICc (KET:INH) [16, 31]: 32
- FLC FD (FLC:INH) [16, 32]: 1
- ITR FD (ITR:INH) [16, 33]: 1
- KET FD (KET:INH) [16, 34]: 1
- INH FD (FLC:INH) [16, 35]: 1
- INH FD (ITR:INH) [16, 36]: 32
- INH FD (KET:INH) [16, 37]: 2
- MFC [17]: 32 mg/L (≈ 80.3 µM)
- MIC [17]: 32 mg/L (≈ 80.3 µM)
- MFC [18]: 128 mg/L (≈ 321 µM)
- MIC [18]: 32 mg/L (≈ 80.3 µM)
- FICI ([19]; FLC:INH combination): ≥4
- INH MICc [19, 20]: 16
- FLC FD (MIC-MICc fold decrease) [19, 21]: 1
- INH FD (MIC-MICc fold decrease) ([19]; FLC:INH combination): 1
- FICI ([19]; ITR:INH combination): 1.5
- INH MICc [19, 22]: 4
- ITR FD (MIC-MICc fold decrease) [19, 23]: 2
- INH FD (MIC-MICc fold decrease) ([19]; ITR:INH combination): 4
- FICI ([19]; KET:INH combination): 3
- INH MICc [19, 24]: 8
- KET FD (MIC-MICc fold decrease) [19, 25]: 1
- INH FD (MIC-MICc fold decrease) ([19]; KET:INH combination): 2
